Results on one molecule are retold here after publication PMC7156612, “Olinciguat, an Oral sGC Stimulator, Exhibits Diverse Pharmacology Across Preclinical Models of Cardiovascular, Metabolic, Renal, and Inflammatory Disease” (Frontiers in Pharmacology, 2020).

The structures appear in SMILES notation. Values joined by “and” are separate entries in the source; they are usually repeats but may differ in a detail not shown here. Equal values may be shown once. “Also recorded” adds a separate entry of the source. Marks after values point to notes of the source that are not given here.

The subject of data set [1] is obese ZSF1 rats. Put plainly: ZSF1 rat model of metabolic syndrome and diabetic nephropathy. Format: in vivo. As for the experimental part: (§1) Lean (n=8, 370–420 g, 15 weeks) and obese (n=32, 500–630 g, 15 weeks) male ZSF1 rats were studied. Rats were treated with enalapril to reflect standard of care drug treatment for patients with diabetic kidney disease. Dose modeling based on allometric scaling relationships estimated that a 10 mg/day enalapril dose in humans (within usual dose range of 10–40 mg based on prescribing information) corresponds to 1 mg/kg/day in rats ([Nair and Jacob, 2016]). To measure hemodynamics in freely moving animals, ZSF1 obese rats were implanted with telemetry transmitters (HD-S10, Data Sciences International) at 9–10 weeks of age, as described above.
(§2) The study included a 10-day pretreatment period and a 10-week treatment period. There were five groups of rats in the study. The lean ZSF1 control group (lean control, n=8) and one obese group (obese control, n=8) were fed normal chow and drinking water throughout the 10-day pretreatment period and the 10-week treatment period. Three groups of obese rats were treated with enalapril in drinking water (equivalent to 3 mg/kg/day) throughout the 10-day pretreatment period and the 10-week treatment period. During the treatment period, these enalapril-treated obese rats were administered normal chow (ENP, n=8) or chow containing olinciguat targeting the dose of 10 mg/kg/day (ENP+OLI10, n=8) or 30 mg/kg/day (ENP+OLI30, n=8). Blood and 24-h urine samples were obtained from all animals at baseline (immediately prior to initiation of enalapril treatment), the end of the 10-day pretreatment period (Day 10) and at week 5 and week 10 of the treatment period. Plasma samples were obtained from all olinciguat-treated animals for measurement of olinciguat exposure at week 10. During week 9 of treatment, rats were fasted for 16 h overnight prior to determination of fasting blood glucose using the AlphaTRAK (Abbott) glucose monitoring system. Body weight was measured once every other week. At the end of the study, rats were anesthetized and perfused via the left ventricle with heparinized PBS (1 U/ml heparin) containing IBMX (1 mM). Organs were collected and weighed, and plasma was collected in EDTA tubes. For serum, blood was collected in serum separator tubes, maintained at room temperature for at least 30 min and centrifuged at 6,000 rpm for 10 min, and then stored at −80°C until analysis. Urine and serum samples were analyzed using the Randox Daytona Clinical Chemistry Analyzer (Randox, Kearneysville, WV) for urine protein, serum cholesterol and serum triglycerides. All measurements were performed in accordance with manufacturer's instructions.
(§3) For histology, one kidney from each rat was fixed in 10% formalin, then embedded in paraffin. Slides were prepared and stained with hematoxylin and eosin (H&E) and periodic-acid Schiff (PAS) for light microscopic analysis. Kidney sections were evaluated for the presence of glomerular pathology, tubular damage, interstitial inflammation, interstitial fibrosis, and vascular alterations. Severity-based scoring based on these evaluations was performed by a trained pathologist.
(§4) For the ZSF1 experiment, data are expressed as mean ± standard error of the mean (SEM).
(§5) In the ZSF1 study, change from baseline NT-proBNP, week 10 heart, kidney, and liver weight, urine volume, cholesterol, triglycerides, glucose, and renal histopathology sum score were analyzed by one-way ANOVA corrected for multiple comparisons using Tukey's method. Statistically significant differences vs the obese control and vs the ENP group are indicated in the results. MAP and UPE were analyzed by an ordinary two-way ANOVA with timepoint and treatment group as independent variables, followed by a Tukey's multiple comparisons test. Within each treatment group, significant differences vs baseline are indicated in the results. At week 10, statistically significant differences vs the obese control and vs the ENP control are also indicated in the results.

Test in data set [2]: as above
The conditions noted are these: male, rat, plasma, oral; obese ZSF1, enalapril + olinciguat 30 mg/kg/day in chow; read-out: average total plasma concentration of olinciguat at Week 10. Format: in vivo. As for the experimental part:
as §1, §2, §3, §4, §5

Data set [3] relates to spontaneously hypertensive rats (SHR). The experiment in a line: Arterial hemodynamics by telemetry in spontaneously hypertensive rats. The class given is in vivo, rat. As to the method: The Dataquest A.R.T.™ acquisition and analysis system (Data Sciences International [DSI], St. Paul, MN) was employed to monitor and analyze hemodynamic data from conscious, freely moving rats surgically implanted with a telemetry pressure transmitter (PA-C40). Telemetry transmitter implantation was performed on rats under sterile conditions. Rats were anesthetized with isoflurane and body temperature was maintained with a heating pad during surgery. A laparotomy was performed to expose the abdominal aorta. The catheter tip of the telemetry transmitter was inserted into the abdominal aorta and secured with a 5-0 silk suture (Ethicon, Inc., Somerville, NJ). The abdominal incision was closed with uninterrupted suture (4-0 silk, Ethicon, Inc., Somerville, NJ) and the telemetry transmitter was placed in the abdominal cavity and secured to the abdominal wall. Approximately 100 µl of 0.25% marcaine was applied directly to the closed abdominal wall, and the skin was then closed with suture (4-0 Vicryl® absorbable, Ethicon, Inc., Somerville, NJ). Buprenorphine (0.05 mg/kg/day, subcutaneous [s.c.]) was administered immediately after the surgery for postoperative pain relief. After recovery from anesthesia, rats were returned to their home cages, placed on DSI receivers, and allowed a 5- to 14-day recovery period. Arterial hemodynamics were measured continuously and recorded throughout the study. For acute studies, analysis was based on hourly averages, for chronic studies, analysis was based on daily or weekly averages.
Spontaneously hypertensive rats (SHRs) (n=6, male, 230–250 g, 14 weeks of age) and Wistar rats (n=6, male, 230–250 g, 12 weeks of age) were implanted with telemetry transmitters as described above. Olinciguat was formulated as a suspension in a vehicle containing 0.5% methylcellulose and 0.2% Tween. Rats were p.o. dosed with a dosing volume of 5 ml/kg. […] Using plasma from tail vein, olinciguat plasma concentrations were determined at 1, 6, and 24 h post-dose on day 4 and reported as the mean from Wistar (n=3) and SHR (n=3). Hemodynamics were recorded hourly during a 24-h baseline period and over the first 3 days of dosing.
Maximum change from baseline of mean arterial pressure (MAP) was calculated using the 24-h pre-first dose average subtracted from the lowest MAP value recorded within 2 h following dosing. The 1-h post-dose change from baseline heart rate (HR) was calculated using the 3-h pre-first dose average subtracted from the 1-h post-dose average.
In the hemodynamic study in Wistar and SHR, hourly MAP data were analyzed using a repeated measures two-way ANOVA, with time and treatment group as independent variables. Significance at each timepoint was determined as compared to the vehicle control using a Dunnett's post-hoc test.

Where [4] appears, read: obese ZSF1, enalapril 3 mg/kg/day + olinciguat 30 mg/kg/day.

In the case of `NC(=O)[C@](O)(CNc1nc(-c2cc(-c3ccon3)n(Cc3ccccc3F)n2)ncc1F)C(F)(F)F` [olinciguat, (R)-3,3,3-trifluoro-2-(((5-fluoro-2-(1-(2-fluorobenzyl)-5-(isoxazol-3-yl)-1H-pyrazol-3-yl)pyrimidin-4-yl)amino)methyl)-2-hydroxypropanamide], in data set [1] (setting [4]), the “cholesterol, percent lower than obese control” value is 41%; the “increase of proteinuria over 10 weeks” value is given as 56%; the liver weight result is “↓ liver weight”; the “serum cholesterol at week 10” value is on record as “↓ cholesterol”. In data set [1] (setting [4]), the “serum triglycerides at week 10” value is “↓ triglycerides”; the total kidney weight result is listed as “did not develop renal hypertrophy; also recorded: ↓ kidney weight”; the “triglycerides, percent lower than obese control” value came out at 52%. The fasting blood glucose result in data set [1] (obese ZSF1, enalapril 3 mg/kg/day + olinciguat 30 mg/kg/day, week 9) is on record as “↓glucose”. Besides, the “UPE at week 10” value in data set [1] (obese ZSF1, enalapril 3 mg/kg/day + olinciguat 30 mg/kg/day, obese control 1.42 ± 0.12) was “↓ proteinuria”. Also, the “renal pathology sum score” value in data set [1] (obese ZSF1, enalapril 3 mg/kg/day + olinciguat 30 mg/kg/day, p < 0.0001 vs obese control) is “significantly improved the composite renal histopathological score; also recorded: ↓ renal histopath”. Besides, the “Olinciguat concentration (free)” value in data set [1] (obese ZSF1, olinciguat 30 mg/kg/day, total plasma concentration x 1.0% free) is given as 5.1–6.1 nM^e. Further, in data set [1] (obese ZSF1, treatment with olinciguat (discussion)), the “glucose, percent lower” value is listed as 43%. For the same molecule, the “difference in MAP at end of treatment between enalapril+olinciguat 30 mg/kg and enalapril monotherapy groups” value in data set [1] (obese ZSF1, week 10) is on record as −8^d mmHg. Further, the concentration at 10 weeks in data set [2] fell in the range of 510 to 610 nM. In data set [3] (1 mg/kg p.o. QD), the “MAP vs vehicle-treated rats” value is reported as “only lower than vehicle-treated rats on the third day of dosing”. Also, the “MAP vs vehicle-treated rats” value in data set [3] (3 mg/kg p.o. QD, 6-h period following dosing on all 3 days) is recorded as “significantly lower than vehicle-treated rats”. For the same molecule, in data set [3] (10 mg/kg p.o. QD, 6-h period following dosing on all 3 days), the “MAP vs vehicle-treated rats” value is “significantly lower than vehicle-treated rats”. For the same molecule, the “maximum absolute change in MAP” value in data set [3] (10 mg/kg p.o. QD, day 3, 10 mg/kg) was −26 ± 2 mmHg and −26^b mmHg.
